According to patent US20260014278A1, “HYBRID PEPTIDE DENDRIMER SYSTEMS AND EXTRAHEPATIC DELIVERY” (NUNTIUS THERAPEUTICS LIMITED, priority 2022, published 2026):

Assay: Dynamic light scattering: hydrodynamic size and polydispersity index (PDI) of nanoparticles
Type: physicochemical
Details: Table 7, first generation dendrimers for mixed dendrimer nanoparticles
Protocol: (§1) The hydrodynamic size was measured using the dynamic light scattering (DLS) technique. DLS is a very sensitive, non-invasive method to measure size and size distribution of nanoparticles in a liquid. […] Analysing these intensity fluctuations allows us to calculate the velocity of the Brownian motion. The size of the nanoparticles can be determined by using the Stokes-Einstein relationship. With the latest technology, it can measure nanoparticles smaller than 1 nm.
PDI is used to estimate the average uniformity of a particle solution, The method of cumulants is a standard technique for analysing DLS data on sample polydispersity. PDI is a number calculated from a 2 parameter fit to the correlation data (the cumulants analysis). The cumulants analysis is used to evaluate the autocorrelation function generated by a DLS experiment. The calculation is defined in ISO 13321 and ISO 22412. PDI values greater than 0.7 indicate that the sample has a very broad size distribution and is not suitable for the DLS technique. The calculations for these parameters are defined in the ISO standard document 13321:1996 E and ISO 22412:2008.
as §1, with “Size, zeta potential and polydispersity index (PDI) measurement: The hydrodynamic” for “The hydrodynamic”, “scattering (DLS) technique using the Zetasizer Advance Series—Pro (Malvern Panalytical Ltd, Malvern, UK) according to the manufacturer's instructions. DLS is” for “scattering (DLS) technique. DLS is”
The data obtained with DLS measurements can also be used to calculate the PDI of particle in solution. PDI is used to estimate the average uniformity of a particle solution. The method of cumulants is a standard technique for analysing DLS data on sample polydispersity. PDI is a number calculated from a 2 parameter fit to the correlation data (the cumulants analysis). The cumulants analysis is used to evaluate the autocorrelation function generated by a DLS experiment. The calculation is defined in ISO 13321 and ISO 22412. PDI values greater than 0.7 indicate that the sample has a very broad size distribution and is not suitable for the DLS technique. The calculations for these parameters are defined in the ISO standard document 13321:1996 E and ISO 22412:2008.
To measure the size and PDI, the samples were diluted 16× in 25 mM HEPES buffer (5 μl sample+75 μl buffer). Parameters: reference material: polystyrene latex, dispersant: water, 25° C. The PDI measurements were measured in nanoparticles comprising a dendrimer:nucleic acid NP ratio of 8:1.
For (RLR)2KRHC-NH2 [RHCG1-RLR], the PDI was 0.766.

Same assay, conditions: peptide dendrimer, lipid and mRNA complexes; N:P 8:1, DOTMA/DOPE w/w 10:1 to mRNA
For “(WR)8(KRM)4(KRF)2KGSC-NH2 [GSCG1-RF, 2-RM, 3-WR]”, the “Polydispersity Index (PDI)” value was 0.277.
In the case of “(LR)8(KRL)4(KRL)2KRYM-NH2 [RYMG1,2-RL, 3-LR]”, the “Polydispersity Index (PDI)” value is reported as 0.257.
In the case of “(LR)8(KRL)4(KRL)2KGSCRHCRFWRYM-NH2 [LinearG1,2-RL, 3-LR]”, the “Polydispersity Index (PDI)” value is reported as 0.289.
With “(MR)8(KRC)4(KRC)2KGSC-NH2 [GSCG1-RC, 2-RC, 3-MR]” the “Polydispersity Index (PDI)” value was 0.19.
With (R)8(KR)4(KR)2KRHC-NH2 [RHCG1,2,3-R] the “Polydispersity Index (PDI)” value was 0.396.
For “(RL)8(KLR)4(KLR)2KGSC-NH2 [GSCG1,2-LR, 3-RL]”, the “Polydispersity Index (PDI)” value was 0.242.
In the case of “(LR)8(KRL)4(KRL)2KYM-NH2 [YMG1,2-RL, 3-LR]”, the “Polydispersity Index (PDI)” value is reported as 0.213.
In the case of “(LRLR)8(KLRLR)4(KLRLR)2KGSC-NH2 [GSCG1,2,3-LRLR]”, the “Polydispersity Index (PDI)” value is reported as 0.287.
In the case of “(BR)8(KRB)4(KRX)2KGSC-NH2 [GSCG1-RX, 2-RB, 3-BR]”, the “Polydispersity Index (PDI)” value is reported as 0.403.
In the case of “(LR)8(KR)4(KRLRL)2KRHC-NH2 [RHCG1-RLRL, 2-R, 3-LR]”, the “Polydispersity Index (PDI)” value is reported as 0.37.
In the case of “(lR)8(KrL)4(KRL)2KGSC-NH2 [GSCG1-Rl, 2-rL, 3-lR]”, the “Polydispersity Index (PDI)” value is reported as 0.241.
For “(FR)8(KRQ)4(KRW)2KGSC-NH2 [GSCG1-RW, 2-RQ, 3-FR]”, the “Polydispersity Index (PDI)” value was 0.452.
For “(LR)8(KLR)4(KLR)2KGSC-NH2 [GSCG1,2,3-LR]”, the “Polydispersity Index (PDI)” value was 0.272.
For “(R)8(KRL)4(KRLR)2KRHC-NH2 [RHCG1-RLR, 2-RL, 3-R]”, the “Polydispersity Index (PDI)” value was 0.429.
With “(LR)8(KRL)4(KRL)2KA-NH2 [AG1,2-RL, 3-LR]” the “Polydispersity Index (PDI)” value was 0.184.
For (R)4(KR)2KRHC-NH2 [RHCG1,2-R], the “Polydispersity Index (PDI)” value was 0.252.
For “(LR)8(KRL)4(KRL)2KRFW-NH2 [RFWG1,2-RL, 3-LR]”, the “Polydispersity Index (PDI)” value was 0.401.
In the case of “(YR)8(KRT)4(KRQ)2KGSC-NH2 [GSCG1-RQ, 2-RT, 3-YR]”, the “Polydispersity Index (PDI)” value is reported as 0.409.
For (LR)2KRHC-NH2 [RHCG1-LR], the “Polydispersity Index (PDI)” value was 0.577.
For “(LR)8(KR)4(KRLR)2KRHC-NH2 [RHCG1-RLR, 2-R, 3-LR]”, the “Polydispersity Index (PDI)” value was 0.439.
For (RR)4(KLL)2KGSC-NH2 [GSCG1-LL, 2-RR], the “Polydispersity Index (PDI)” value was 0.087.
With “(LR)8(KRL)4(KRE)2KGSC-NH2 [GSCG1-RE, 2-RL, 3-LR]” the “Polydispersity Index (PDI)” value was 0.158.
In the case of “(QR)8(KRT)4(KRY)2KGSC-NH2 [GSCG1-RY, 2-RT, 3-QR]”, the “Polydispersity Index (PDI)” value is reported as 0.178.
With “(RLR)8(KRLR)4(KRLR)2KRHC-NH2 [RHCG1,2,3-RLR]” the “Polydispersity Index (PDI)” value was 0.299.
With (LRLR)4(KLRLR)2KGSC-NH2 [GSCG1,2-LRLR] the “Polydispersity Index (PDI)” value was 0.189.
In the case of “(RL)8(KRL)4(KLR)2KGSC-NH2 [GSCG1-LR, 2,3-RL]”, the “Polydispersity Index (PDI)” value is reported as 0.417.
With “(LR)8(KRL)4(KRL)2KRHC-NH2 [RHCG1,2-RL, 3-LR]” the “Polydispersity Index (PDI)” value was 0.363.
In the case of (lr)8(krl)4(krl)2kgsc-NH2, the “Polydispersity Index (PDI)” value is reported as 0.246.
For (LR)8(DabRL)4(DabRL)2DabGSC-NH2, the “Polydispersity Index (PDI)” value was 0.286.
For “(HK)8(KKH)4(KKL)2KGSC-NH2 [GSCG1-KL, 2-KH, 3-HK]”, the “Polydispersity Index (PDI)” value was 0.126.
With (RLR)4(KRLR)2KRHC-NH2 [RHCG1,2-RLR] the “Polydispersity Index (PDI)” value was 0.214.
